Key:
[1] = system: HaCaT cells; experiment: In-vitro screening with MTT method, inhibition of proliferation of HaCaT cells; format: cell-based, human; settings: about 48 hours incubation
Procedure: Compound No. 5 was dissolved in DMSO, and gradiently diluted with PBS to prepare solutions at concentration of 1000 μg/ml, 100 μg/ml, 10 μg/ml, 1 μg/ml, 0.1 μg/ml, and 0.01 μg/ml, respectively. Cis-platinum (CDDP) was used as positive control, and sample solutions were prepared with the same method. The sample solutions were added into a 96-well plate placed with the growth phase human immortalized keratinocyte (HaCaT) cells (Pharmacology Laboratory of Shanghai Institute of Pharmaceutical Industry), and were incubated for about 48 hours. The cell relative survival rate was determined by the MTT method, and calculated according to the following formula based on the light absorption value at […]. Cell relative survival rate=(Light absorption value of sample treatment group—background light absorption value)/(Light absorption value of DMSO treatment group—background light absorption value).

[2] = system: guinea pig ear epidermis; experiment: Propranolole hydrochloride-induced psoriasis in guinea pig model; format: in vivo; settings: cream 5% w/w, 200 μl on both ears twice daily, 7 days
Procedure: Except for those in Saline control group, guinea pigs were treated with propranolole hydrochloride cream (5% w/w, 200 μl) uniformly applied on the back of both ears twice daily for four successive weeks. After four weeks, the […] were divided into several groups, namely, blank cream group, calcipotriol group, and four testing cream groups with Compound 5 at concentration of 0.5%, 1%, 2%, and 4% (w/w)), respectively. The guinea pigs in Saline control group were treated with saline on the back of both ears; the guinea pigs in other groups were treated with corresponding cream on the back of both ears (200 μl) twice daily for 7 successive days. The guinea pigs were examined during the experiment period and sacrificed 1 hour after the last dosing.

[3] = system: mouse tail epidermis; experiment: Effect on mouse tail epidermis (granular layer of tail scales); format: in vivo; settings: cream 5% (w/w), 100 μl once daily, 7 days, female mice, n = 10
Procedure: 70 female mice were randomly divided into several groups: (a) saline control group, saline was used in each administration; (b) blank cream group, blank cream was used in each administration; (c) calcipotriol control group, calcipotriol in cream (5% w/w) was used in each administration; (d) four testing groups, Compound No 5 in cream at 0.5%, 1%, 2%, and 4% (w/w), respectively, was used in each administration. 100 μl of corresponding treatment was applied to the same position on the tail of the mice once daily for seven successive days. The mice were sacrificed 1 hour after the last application. The treated skin parts were taken for pathological examination, and the tail scales of each mouse was assessed under a microscope. The number of scales having a granular layer in every 100 scales was counted, and the result was expressed as percentage.

[4] = system: mouse vaginal epidermal cells; experiment: Effect on mitosis of mouse vaginal epidermal cells; format: in vivo; settings: cream 5% w/w, 25 μl intravaginal once daily, 3 days, estradiol-treated mice, n = 6
Procedure: Except for the saline control group, sexually mature female mice were injected with estradiol subcutaneously at a dosage of 35 mg/kg for 3 successive days. On the fourth day, in-estrus mice were selected with vaginal smear. The mice were randomly divided into several groups: (a) saline control group, saline was used in each administration; (b) blank cream group, blank cream was used in each administration; (c) calcipotriol control group, calcipotriol in cream (5% w/w) was used in each administration; (d) four testing groups, Compound No 5 in cream at concentration of 0.5%, 1%, 2%, and 4% (w/w), respectively, was used in each application. 25 μl corresponding treatment was injected into the vagina of the mice once daily for 3 successive days. Colchicine (15 mg/Kg) was intraperitoneally injected 2 hours after the last dosing. The mice were sacrificed 6 hours after the injection of colchicine. The vaginal tissue was taken out for pathological examination. The number of mitosis in one hundred basal cells was counted, which was named as the mitotic index.

[5] = system: HaCaT cells; experiment: Morphological examination of the effect on HaCaT cell differentiation; format: cell-based, human; settings: 48 h incubation, immunohistochemical staining
Procedure: HaCaT cells were cultured in DMEM culture medium containing 10% FBS under 37° C. and 5% CO2 concentration. When reaching 80% of the culture bottle area and after digestion by 0.25% trypsin, the cells were adjusted to a concentration of 4×10^4/ml and moved to a 6-well plate respectively (containing sterilized slide). Compound solutions were added. The cells were applied to the corresponding wells, and a blank control group (saline) was set. Both the sample groups and the control group were placed in a cell incubator at 37° C. Immumohistochemical staining was conducted after incubation at 48 h.
The imagine in FIG. 1A is dark brown, indicating large amount of keratin is present. […] Compound No. 5 underwent cornification (positive result).

[6] = system: chick chorioallantoic membrane; experiment: Chick chorioallantoic membrane (CAM) angiogenesis model; format: in vivo, chicken; settings: 4.0 μg/egg, 48 h
Procedure: Fresh eggs were incubated for 6 successive days under 37° C. and 50% humidity. On the 6th day, live eggs were identified and taken out for window-opening. First, the chorioallantoic membrane was located with illumination. Droplets of Compound No. […] After air dry, the filter paper was placed on the chorioallantoic membrane gently without contacting big vessels. The window was sealed with a transparent adhesive tape. The eggs were incubated for 48 hours continuously. The transparent adhesive tape was then uncovered. The window was enlarged and photos were taken under a dissecting microscope (FIGS. 2 A-B). New vessels were counted based on the number of blood vessel branch points in each photo. Inhibitory rate=100−[(number of new blood vessels in treatment group at 24 h)/(number of new blood vessels in treatment group at 0 h)]/[(number of blood vessels in negative control group at 24 h)/(number of blood vessels in negative control group at 0 h)]×100%.

| SMILES | Test Results, effect on HaCat cell differentiation [5] | also measured |
| --- | --- | --- |
| N.N.[Cl][Pt][Cl] [CDDP, Cis-platinum, reference compound] |  | HaCaT Cells IC50 [1]: 1.41 µg/mL |
| C=C1/C(=C\C=C2/CCC[C@]3(C)[C@@H]([C@H](C)/C=C/[C@@H](O)C4CC4)CC[C@@H]23)C[C@@H](O)C[C@@H]1O [Calcipotriol, calcipotriol, reference compound] |  | Epidermal thickness (μm) [2]: 158.72 ± 2.93 μm; Scales quantity in granular layer * 100% [3]: 50.50 ± 4.95 %; Mitotic cell number/total cell number (%) [4]: 15.33 ± 1.21 % |
| C[C@H](c1cccc(Cl)c1)N1CCn2cc(-c3c[nH]c4ncc(-c5ccccc5)cc34)cc2C1=O [Compound 2, (R)-2-(1-(3-chlorophenyl)ethyl)-7-(5-phenyl-1H-pyrrolo[2,3-b]pyridin-3-yl)-3,4-dihydropyrrolo[1,2-a]pyrazin-1(2H)-one] | Positive |  |
| C[C@H](c1cccc(Cl)c1)N1CCn2cc(-c3n[nH]c4ncc(-c5ccccc5)cc34)cc2C1=O [Compound 3, (R)-2-(1-(3-chlorophenyl)ethyl)-7-(5-phenyl-1H-pyrazolo[3,4-b]pyridin-3-yl)-3,4-dihydropyrrolo[1,2-a]pyrazin-1(2H)-one] | Positive |  |
| Cc1cnc(Nc2ccc(F)cc2Cl)nc1-c1cc2n(c1)CCN([C@H](C)c1cccc(Cl)c1)C2=O [Compound 6, (R)-7-(2-((2-chloro-4-fluorophenyl)amino)-5-methylpyrimidin-4-yl)-2-(1-(3-chlorophenyl)ethyl)-3,4-dihydropyrrolo[1,2-a]pyrazin-1(2H)-one] | Positive |  |
| Cc1cnc(Nc2ccc(F)cc2Cl)nc1-c1cc2n(c1)CCCN([C@H](CO)c1cccc(Cl)c1)C2=O [Compound 7, (S)-8-(2-((2-chloro-4-fluorophenyl)amino)-5-methylpyrimidin-4-yl)-2-(1-(3-chlorophenyl)-2-hydroxyethyl)-2,3,4,5-tetrahydro-1H-pyrrolo[1,2-a][1,4]diazepin-1-one] | Positive |  |
| Cc1cnc(Nc2ccc(F)cc2Cl)nc1-c1cc2n(c1)CCN([C@H](CO)c1ccc(Cl)cc1)C2=O [Compound 8, (S)-7-(2-((2-chloro-4-fluorophenyl)amino)-5-methylpyrimidin-4-yl)-2-(1-(4-chlorophenyl)-2-hydroxyethyl)-3,4-dihydropyrrolo[1,2-a]pyrazin-1(2H)-one] | Positive |  |
| Cc1cnc(Nc2ccc(F)cc2Cl)nc1-c1cc2n(c1)CCN([C@H](CO)c1cccc(F)c1)C2=O [Compound 9, (S)-7-(2-((2-chloro-4-fluorophenyl)amino)-5-methylpyrimidin-4-yl)-2-(1-(3-fluorophenyl)-2-hydroxyethyl)-3,4-dihydropyrrolo[1,2-a]pyrazin-1(2H)-one] | Positive |  |
| Cc1cnc(Nc2ccc(F)cc2Cl)nc1-c1cc2n(c1)CCN([C@H](CO)c1ccc(F)cc1)C2=O [Compound 10, (S)-7-(2-((2-chloro-4-fluorophenyl)amino)-5-methylpyrimidin-4-yl)-2-(1-(4-fluorophenyl)-2-hydroxyethyl)-3,4-dihydropyrrolo[1,2-a]pyrazin-1(2H)-one] | Positive |  |
| Cc1cnc(Nc2ccc(N3CCNCC3)cc2Cl)nc1-c1cc2n(c1)CCN([C@H](CO)c1cccc(Cl)c1)C2=O [Compound 11, (S)-7-(2-((2-chloro-4-(piperazin-1-yl)phenyl)amino)-5-methylpyrimidin-4-yl)-2-(1-(3-chlorophenyl)-2-hydroxyethyl)-3,4-dihydropyrrolo[1,2-a]pyrazin-1(2H)-one] | Positive |  |
| Cc1cnc(Nc2ccc(C3CCNCC3)cc2Cl)nc1-c1cc2n(c1)CCN([C@H](CO)c1cccc(Cl)c1)C2=O [Compound 12, (S)-7-(2-((2-chloro-4-(piperidin-4-yl)phenyl)amino)-5-methylpyrimidin-4-yl)-2-(1-(3-chlorophenyl)-2-hydroxyethyl)-3,4-dihydropyrrolo[1,2-a]pyrazin-1(2H)-one] | Positive |  |
| Cc1cnc(Nc2ccc(C3CCN(C(C)C)CC3)cc2Cl)nc1-c1cc2n(c1)CCN([C@H](CO)c1cccc(Cl)c1)C2=O [Compound 13, (S)-7-(2-((2-chloro-4-(1-isopropylpiperidin-4-yl)phenyl)amino)-5-methylpyrimidin-4-yl)-2-(1-(3-chlorophenyl)-2-hydroxyethyl)-3,4-dihydropyrrolo[1,2-a]pyrazin-1(2H)-one] | Positive |  |
| Cc1cnc(Nc2ccc(N3CCN(S(C)(=O)=O)CC3)cc2Cl)nc1-c1cc2n(c1)CCN([C@H](CO)c1cccc(Cl)c1)C2=O [Compound 16, (S)-7-(2-((2-chloro-4-(4-(methylsulfonyl)piperazin-1-yl)phenyl)amino)-5-methylpyrimidin-4-yl)-2-(1-(3-chlorophenyl)-2-hydroxyethyl)-3,4-dihydropyrrolo[1,2-a]pyrazin-1(2H)-one] | Positive |  |
| Cc1cnc(Nc2ccc(F)cc2)nc1-c1cc2n(c1)CCN([C@H](CO)c1cccc(Cl)c1)C2=O [Compound 17, (S)-2-(1-(3-chlorophenyl)-2-hydroxyethyl)-7-(2-((4-fluorophenyl)amino)-5-methylpyrimidin-4-yl)-3,4-dihydropyrrolo[1,2-a]pyrazin-1(2H)-one] | Positive |  |
| Cc1cnc(NC2CCOCC2)nc1-c1cc2n(c1)CCN(C(c1ccc(Cl)c(F)c1)c1cnn(C)c1)C2=O (centres unmarked) [Compound 19, 2-((4-chloro-3-fluorophenyl)(1-methyl-1H-pyrazol-4-yl)methyl)-7-(5-methyl-2-((tetrahydro-2H-pyran-4-yl)amino)pyrimidin-4-yl)-3,4-dihydropyrrolo[1,2-a]pyrazin-1(2H)-one] | Positive |  |
| Cc1cnc(NC2CCCCC2)nc1-c1cc2n(c1)CCN([C@H](CO)c1cccc(Cl)c1)C2=O [Compound 20, (S)-2-(1-(3-chlorophenyl)-2-hydroxyethyl)-7-(2-(cyclohexylamino)-5-methylpyrimidin-4-yl)-3,4-dihydropyrrolo[1,2-a]pyrazin-1(2H)-one] | Positive |  |
| CNC(=O)c1cc(Oc2ccc(NC(=O)Nc3ccc(Cl)c(C(F)(F)F)c3)cc2)ccn1 [Sorafeni, Sorafenib, reference compound] |  | Number of new blood vessels 48 h ([6]; n = 3): 18.17 ± 7.60; Inhibitory rate (%) ([6]; versus PBS group): 77.27% |

Source: patent US10238657B2, “Heterocyclic compounds for treating psoriasis” (JS INNOPHARM (SHANGHAI LTD.), priority 2015, dated 2019)
